Experimental data as given in patent US20230278972A1, “SUBSTITUTED HALOALKYL SULFONANILIDE HERBICIDES” (FMC Corporation, priority 2020, published 2023).

Experiments:
Type in all cases: in vivo
[1] = tested on: Foxtail, Giant (giant foxtail, Setaria faberi); assay: Test A1 preemergence, Foxtail, Giant
Procedure, shortened: (§1)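 Test compounds were formulated in a non-phytotoxic solvent mixture containing a surfactant. For preemergence, seeds sown in a loam soil–sand blend received a directed soil spray. For postemergence, potted plants in the same soil, 2 to 10 cm tall at the one- to two-leaf stage, were sprayed.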

kochia (Bassia scoparia) = assay: Test A1 preemergence, kochia
Procedure, shortened: as §1

[2] = tested on: Ryegrass, Italian (Italian ryegrass, Lolium multiflorum); assay: Test A1 preemergence, Ryegrass, Italian
Procedure, shortened: as §1

[3] = tested on: wheat (Triticum aestivum); assay: Test A1 preemergence, wheat
Procedure, shortened: as §1

corn (Zea mays) = assay: Test A1 postemergence, corn; settings: Postemergence
Procedure, shortened: as §1

[4] = tested on: Foxtail, Giant (giant foxtail, Setaria faberi); assay: Test A1 postemergence, Foxtail, Giant; settings: for Plant response rating, Foxtail, Giant: Postemergence; for Foxtail, Giant plant response rating: postemergence
Procedure, shortened: (§2)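 Seeds were first planted into a blend of loam soil and sand and given a preemergence directed soil spray. In parallel, pots of the same soil were sown for postemergence application once plants reached 2 to 10 cm and the one- to two-leaf stage. Both used surfactant-containing non-phytotoxic solvent formulations.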

soybean (Glycine max) = assay: Test A1 postemergence, soybean; settings: for Plant response rating, Soybean: Postemergence; for Soybean plant response rating: postemergence
Procedure, shortened: as §2

[5] = tested on: horseweed (Erigeron canadensis); assay: Test A1 postemergence, horseweed; settings: Postemergence
Procedure, shortened: as §2

rice (Oryza sativa) = assay: Test B1 flooded paddy test, rice; settings: 250 g ai/ha, Flood, applied to paddy water, 2-leaf stage, visually evaluated after 10 to 14 days
Description: A dash (-) response means no test result.

[6] = 31 g ai/ha, 0 to 100 scale (0 no effect, 100 complete control)
[7] = 125 g ai/ha, 0 to 100 scale, 0 no effect, 100 complete control
[8] = 31 g ai/ha, 0 to 100 scale (0 no effect, 100 complete control), 10 days

Row | Structure (SMILES) | Plant response rating, Foxtail, Giant [1, 6] | Plant response rating, Foxtail, Giant [1, 7] | Plant response rating, Kochia (kochia (Bassia scoparia); [6]) | Plant response rating, Kochia (kochia (Bassia scoparia); [7]) | Plant response rating, Ryegrass, Italian [2, 6] | Plant response rating, Ryegrass, Italian [2, 7] | Plant response rating, Wheat [3, 6] | Plant response rating, Wheat [3, 7] | Plant response rating, Corn (corn (Zea mays); [8]) | Plant response rating, Corn (corn (Zea mays); 125 g ai/ha, 0 to 100 scale) | Plant response rating, Foxtail, Giant [4, 8] | Plant response rating, Foxtail, Giant ([4]; 125 g ai/ha, 0 to 100 scale) | Plant response rating, Soybean (soybean (Glycine max); [8]) | Plant response rating, Soybean (soybean (Glycine max); 125 g ai/ha, 0 to 100 scale) | Plant response rating, Horseweed [5, 8] | Plant response rating, Horseweed ([5]; 125 g ai/ha, 0 to 100 scale) | Plant response rating, Rice (0 to 100 scale, 0 is no effect, 100 is complete control) (rice (Oryza sativa)) | Foxtail, Giant plant response rating [4, 6] | Soybean plant response rating (soybean (Glycine max); [6])
1 | Cc1cc(C)c(N(COC(=O)C(C)(C)C)S(=O)(=O)C(F)(F)F)cc1C1=NOC2CCCCCC12 (single isomer, unassigned) [Compound 294] | 0 | 20 | 0 | 60 | 40 | 90 | 0 | 0 | 10 | 20 | 0 | 20 | 0 | 50 | 10 | 90 | 0 |  | 
2 | Cc1cc(C)c(-n2nccc(C)c2=O)cc1NS(=O)(=O)C(F)(F)F [Compound 281] | 0 | 100 | 0 | 20 | 0 | 40 | 0 | 20 | 0 | 0 | 0 | 30 | 50 | 60 | 100 | 70 | 0 |  | 
3 | Cc1c(NS(=O)(=O)C(F)(F)F)cc(C(=O)N(C)C)c(C)c1Cl [Compound 287] | 0 | 30 | 20 | 60 | 70 | 90 | 0 | 30 | 0 | 0 | 0 | 0 | 30 | 50 | 20 | 40 | 0 |  | 
4 | Cc1c(NS(=O)(=O)C(F)(F)F)cc(C(=O)N(C)C)c(C)c1C [Compound 288] | 20 | 90 | 0 | 40 | 0 | 0 | 0 | 0 | 0 | 10 | 0 | 70 | 30 | 40 | 20 | 30 | 0 |  | 
5 | Cc1c(NS(=O)(=O)C(F)(F)F)cc(C(=O)N2CCOCC2)c(C)c1C [Compound 289, 1,1,1-Trifluoro-N-[2,3,4-trimethyl-5-(4-morpholinylcarbonyl)phenyl]methanesulfonamide] | 30 | 100 | 20 | 80 | 20 | 70 | 30 | 80 | 0 | 20 | 40 | 90 | 40 | 50 | 80 | 90 | 10 |  | 
6 | CCC1ON=C(c2cc(N(COC(=O)C(C)(C)C)S(=O)(=O)C(F)(F)F)c(C)cc2C)C1CC (stereo not shown) [Compound 344] | 30 | 100 | 0 | 30 | 20 | 40 | 0 | 0 | 20 | 50 | 10 | 30 | 40 | 50 |  |  | 40 |  | 
7 | CCC1ON=C(c2cc(N(C(=O)OCC(C)C)S(=O)(=O)C(F)(F)F)c(C)cc2C)C1CC (stereo not shown) [Compound 345] | 40 | 100 | 20 | 30 | 30 | 80 | 30 | 10 | 0 | 50 | 30 | 50 | 40 | 50 |  |  | 25 |  | 
8 | CCC1ON=C(c2cc(N(C(=O)OCC(C)C)S(=O)(=O)C(F)(F)F)c(C)cc2C)C1CC (stereo not shown) [Compound 348] | 30 | 90 | 0 | 30 | 0 | 70 | 0 | 30 | 0 | 20 | 20 | 30 | 50 | 90 |  |  | 0 |  | 
9 | Cc1c(NS(=O)(=O)C(F)(F)F)cc(C(=O)N2CCC(C)CC2)c(C)c1C [Compound 366] | 100 | 100 | 0 | 30 | 0 | 40 | 0 | 10 | 0 | 0 |  | 80 |  | 60 |  |  | 10 | 30 | 50
10 | COC1CCN(C(=O)c2cc(NS(=O)(=O)C(F)(F)F)c(C)c(C)c2C)CC1 [Compound 367] | 90 | 100 | 0 | 20 | 0 | 20 | 10 | 40 | 0 | 70 |  | 90 |  | 80 |  |  | 15 | 10 | 50
